Columns and labels:
[1] = target: T1, CYP1A2 (Homo sapiens, UniProt P05177); experiment: CYP inhibition test, liver microsome incubation; type: in vitro ADME; details: liver microsomes, probe phenacetin
T1 construct: from tissue; host or cells: liver microsomes
T1 sequence (P05177 1-516): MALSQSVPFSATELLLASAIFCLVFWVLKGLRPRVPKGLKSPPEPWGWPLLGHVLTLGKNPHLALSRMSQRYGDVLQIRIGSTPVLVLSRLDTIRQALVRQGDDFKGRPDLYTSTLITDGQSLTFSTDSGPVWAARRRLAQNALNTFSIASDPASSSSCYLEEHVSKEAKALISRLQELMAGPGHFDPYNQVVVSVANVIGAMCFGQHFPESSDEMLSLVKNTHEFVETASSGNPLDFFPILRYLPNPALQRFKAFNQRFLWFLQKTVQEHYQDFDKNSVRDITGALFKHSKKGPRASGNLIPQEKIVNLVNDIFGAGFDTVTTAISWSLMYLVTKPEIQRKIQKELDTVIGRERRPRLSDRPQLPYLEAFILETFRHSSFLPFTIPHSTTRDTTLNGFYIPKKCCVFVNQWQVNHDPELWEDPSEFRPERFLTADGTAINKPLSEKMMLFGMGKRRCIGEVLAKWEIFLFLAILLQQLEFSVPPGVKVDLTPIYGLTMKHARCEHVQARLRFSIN
Protocol: (§1) The compound was dissolved in DMSO to prepare a 10 mM stock solution. The stock solution was further diluted into a series of working solutions of 5, 1.5, 0.5, 0.15, 0.05, 0.015 and 0.005 mM with a mixed solvent of DMSO:methanol=1:1.
(§2) The substrates were each dissolved in DMSO to prepare stock solutions of the corresponding concentrations.
(§3) The positive controls were each dissolved in DMSO to prepare stock solutions of the corresponding concentrations. They were then diluted with methanol to the corresponding concentrations of working solutions.
(§4) The protein concentration of liver microsomes in the reaction system was 0.2 mg/mL, and the coenzyme NADPH was 1.0 mM. The incubation was carried out in a water bath at 37° C. The reaction was quenched and subjected to conventional procedures for LC-MS/MS analysis.

[2] = target: T2, CYP2B6 (Homo sapiens, UniProt P20813); experiment: CYP inhibition test, liver microsome incubation; type: in vitro ADME; details: liver microsomes, probe bupropion
T2 construct: The protein concentration of liver microsomes in the reaction system was 0.2 mg/mL; from tissue; host or cells: liver microsomes
T2 sequence (P20813 1-491): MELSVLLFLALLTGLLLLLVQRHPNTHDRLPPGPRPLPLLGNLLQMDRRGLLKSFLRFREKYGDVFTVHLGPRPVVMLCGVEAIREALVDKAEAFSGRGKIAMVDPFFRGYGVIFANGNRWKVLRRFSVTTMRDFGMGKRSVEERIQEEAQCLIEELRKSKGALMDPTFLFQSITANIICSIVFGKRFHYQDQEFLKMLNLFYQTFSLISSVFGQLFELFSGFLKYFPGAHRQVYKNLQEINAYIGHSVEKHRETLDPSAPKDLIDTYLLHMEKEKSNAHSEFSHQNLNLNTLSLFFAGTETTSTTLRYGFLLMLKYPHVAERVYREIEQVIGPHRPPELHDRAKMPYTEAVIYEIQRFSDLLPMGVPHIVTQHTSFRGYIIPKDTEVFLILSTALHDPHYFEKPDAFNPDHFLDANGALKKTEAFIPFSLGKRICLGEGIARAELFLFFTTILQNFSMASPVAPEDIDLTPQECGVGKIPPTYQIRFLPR
Protocol: as §1, §2, §3, §4

[3] = target: T3, CYP2C19 (Homo sapiens, UniProt P33261); experiment: CYP inhibition test, liver microsome incubation; type: in vitro ADME; details: liver microsomes, probe methoin
T3 construct: The protein concentration of liver microsomes in the reaction system was 0.2 mg/mL; from tissue; host or cells: liver microsomes
T3 sequence (P33261 whole entry): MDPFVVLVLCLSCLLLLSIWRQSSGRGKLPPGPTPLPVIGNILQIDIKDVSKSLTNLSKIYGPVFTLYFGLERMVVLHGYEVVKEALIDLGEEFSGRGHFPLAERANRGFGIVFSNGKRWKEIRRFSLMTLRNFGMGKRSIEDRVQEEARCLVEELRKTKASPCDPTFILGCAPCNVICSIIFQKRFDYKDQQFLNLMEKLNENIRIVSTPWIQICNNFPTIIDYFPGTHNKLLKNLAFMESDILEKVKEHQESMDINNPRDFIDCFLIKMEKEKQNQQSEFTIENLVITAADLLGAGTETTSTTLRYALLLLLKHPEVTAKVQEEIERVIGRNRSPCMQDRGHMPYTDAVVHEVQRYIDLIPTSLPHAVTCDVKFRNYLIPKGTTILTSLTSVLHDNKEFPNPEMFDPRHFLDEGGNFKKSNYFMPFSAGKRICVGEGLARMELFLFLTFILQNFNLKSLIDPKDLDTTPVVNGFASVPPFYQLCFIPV
Protocol: as §1, §2, §3, §4

[4] = target: T4, CYP2C8 (Homo sapiens, UniProt P10632); experiment: CYP inhibition test, liver microsome incubation; type: in vitro ADME; details: liver microsomes, probe amodiaquine
T4 construct: from tissue; host or cells: liver microsomes
T4 sequence (P10632 1-490): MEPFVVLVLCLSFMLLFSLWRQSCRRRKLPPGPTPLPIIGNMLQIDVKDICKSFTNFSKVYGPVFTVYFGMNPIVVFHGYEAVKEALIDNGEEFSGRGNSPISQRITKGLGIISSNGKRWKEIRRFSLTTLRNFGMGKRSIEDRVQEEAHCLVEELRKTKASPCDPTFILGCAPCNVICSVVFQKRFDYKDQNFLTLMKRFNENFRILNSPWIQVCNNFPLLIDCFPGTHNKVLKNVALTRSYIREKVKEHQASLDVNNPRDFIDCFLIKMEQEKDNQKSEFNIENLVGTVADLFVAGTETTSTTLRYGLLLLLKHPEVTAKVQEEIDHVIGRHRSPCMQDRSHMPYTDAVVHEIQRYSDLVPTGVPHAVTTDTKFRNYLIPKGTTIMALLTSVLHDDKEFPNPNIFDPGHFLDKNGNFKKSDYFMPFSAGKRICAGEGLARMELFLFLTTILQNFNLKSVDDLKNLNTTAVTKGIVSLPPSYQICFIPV
Protocol: as §1, §2, §3, §4

[5] = target: T5, CYP2C9 (Homo sapiens, UniProt P11712); experiment: CYP inhibition test, liver microsome incubation; type: in vitro ADME; details: liver microsomes, probe diclofenac
T5 construct: The protein concentration of liver microsomes in the reaction system was 0.2 mg/mL; from tissue; host or cells: liver microsomes
T5 sequence (P11712 whole entry): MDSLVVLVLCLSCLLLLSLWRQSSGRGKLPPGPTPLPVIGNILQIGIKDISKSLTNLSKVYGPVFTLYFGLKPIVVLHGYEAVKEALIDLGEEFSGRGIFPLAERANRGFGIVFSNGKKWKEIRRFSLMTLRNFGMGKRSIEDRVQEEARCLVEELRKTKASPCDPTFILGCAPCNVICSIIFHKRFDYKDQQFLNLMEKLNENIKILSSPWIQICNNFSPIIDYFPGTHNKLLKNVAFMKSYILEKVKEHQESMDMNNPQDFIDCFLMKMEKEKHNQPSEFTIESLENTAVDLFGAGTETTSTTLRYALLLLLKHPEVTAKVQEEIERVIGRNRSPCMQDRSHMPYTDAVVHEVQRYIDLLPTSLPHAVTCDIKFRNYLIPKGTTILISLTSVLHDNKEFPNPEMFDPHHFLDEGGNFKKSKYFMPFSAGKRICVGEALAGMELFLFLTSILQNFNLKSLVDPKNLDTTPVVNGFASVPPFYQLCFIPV
Protocol: as §1, §2, §3, §4

[6] = target: T6, CYP2D6 (Homo sapiens, UniProt P10635); experiment: CYP inhibition test, liver microsome incubation; type: in vitro ADME; details: liver microsomes, probe dextromethorphan
T6 construct: from tissue; host or cells: liver microsomes
T6 sequence (P10635 whole entry): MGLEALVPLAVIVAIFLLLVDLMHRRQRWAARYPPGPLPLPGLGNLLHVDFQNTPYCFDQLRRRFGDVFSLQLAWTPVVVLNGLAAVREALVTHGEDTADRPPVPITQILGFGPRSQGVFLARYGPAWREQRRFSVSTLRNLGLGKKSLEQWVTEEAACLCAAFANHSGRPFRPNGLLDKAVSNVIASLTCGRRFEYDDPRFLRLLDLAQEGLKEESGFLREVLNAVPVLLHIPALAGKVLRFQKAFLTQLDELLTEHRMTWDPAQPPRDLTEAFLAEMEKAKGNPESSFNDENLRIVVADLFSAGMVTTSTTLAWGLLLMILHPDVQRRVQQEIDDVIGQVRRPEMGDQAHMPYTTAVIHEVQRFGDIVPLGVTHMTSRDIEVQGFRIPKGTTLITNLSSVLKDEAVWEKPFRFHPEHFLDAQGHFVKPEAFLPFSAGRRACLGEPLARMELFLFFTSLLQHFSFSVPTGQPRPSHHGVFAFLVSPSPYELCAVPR
Protocol: as §1, §2, §3, §4

[7] = target: T7, CYP3A4 (Homo sapiens, UniProt P08684); experiment: CYP inhibition test, liver microsome incubation; type: in vitro ADME; details: liver microsomes
T7 construct: The protein concentration of liver microsomes in the reaction system was 0.2 mg/mL; from tissue; host or cells: liver microsomes
T7 sequence (P08684 whole entry): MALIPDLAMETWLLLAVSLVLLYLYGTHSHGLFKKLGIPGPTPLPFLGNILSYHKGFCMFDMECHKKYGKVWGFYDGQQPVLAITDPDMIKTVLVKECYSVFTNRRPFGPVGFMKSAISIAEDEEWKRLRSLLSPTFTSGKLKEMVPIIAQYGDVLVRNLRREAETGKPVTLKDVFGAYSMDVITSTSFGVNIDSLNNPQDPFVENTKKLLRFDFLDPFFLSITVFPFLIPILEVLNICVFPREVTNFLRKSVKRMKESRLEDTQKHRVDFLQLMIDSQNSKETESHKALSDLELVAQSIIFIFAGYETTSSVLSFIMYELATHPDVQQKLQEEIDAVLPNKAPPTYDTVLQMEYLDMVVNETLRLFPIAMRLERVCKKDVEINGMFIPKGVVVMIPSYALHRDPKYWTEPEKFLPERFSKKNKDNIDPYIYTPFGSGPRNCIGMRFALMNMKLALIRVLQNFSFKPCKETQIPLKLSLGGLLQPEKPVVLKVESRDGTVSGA
Protocol: as §1, §2, §3, §4

[8] = test system: CYP450 enzymes; experiment: CYP inhibition test, overall statement on the eight CYP450 enzymes; type: in vitro ADME; details: all the eight CYP450 enzymes
Protocol: as §1, §2, §3, §4
The risk of drug interaction is little, and thus higher safety exists. Other compounds of the invention all have similar safety.

[9] = test system: hepatitis B virus (HBV); experiment: In vitro pharmacological test: HBV DNA replication in HepG2.2.15 cells; type: cell-based
Protocol: The inhibitory effect of the compounds of the invention on hepatitis B virus (HBV) was tested. The cytotoxicity of the compounds of the invention and the effect thereof on viral (HBV) nucleic acid (DNA) replication levels were tested at cellular level.
HepG2.2.15 cells in logarithmic growth phase were seeded in a 96-well plate at a cell concentration of 40 cells/μL, and were incubate for 3 days at 37° C. in a 5% CO2 incubator. The medium was replaced with new medium (200 μL/well) before adding the compound. The concentration of each compound of the examples in the stock solutions was 200 μM. The highest concentration was 200 μM, and dilution with DMSO lead to a number of different concentrations. 1 μL of the test compound was placed in the corresponding medium well, and the final test concentrations of the compounds were 0.06, 0.24, 0.98, 3.9, 15.6, 62.5, 250, 1000 nM (for calculating the medium effective concentration (EC50)).

[10] = male, ICR, mouse, in vivo, po, 10 mg/kg

Compound: C[C@H](Cn1cnc2c(N)ncnc21)OCP(=O)(NCCOCc1ccccc1)Oc1ccccc1 (mixture of isomers) [Ex. 15, ((((R)-1-(6-amino-9H-purin-9-yl)propan-2-yl)oxy)methyl)-phenoxy-N-(2-(benzyloxy)ethyl)phosphoramide]
- IC50 [1]: > 50 µM
- IC50 [2]: > 50 µM
- IC50 [3]: > 50 µM
- IC50 [4]: > 50 µM
- IC50 [5]: > 50 µM
- IC50 [6]: > 50 µM
- IC50 ([7]; probe midazolam): 11.6 µM
- IC50 ([7]; probe testosterone): 13.3 µM
- inhibitory effect on the eight CYP450 enzymes (in words) [8]: no inhibitory effect
- EC50 [9]: 0.0547 ± 0.0264 µM

Compound: C[C@H](Cn1cnc2c(N)ncnc21)OCP(=O)(O)O (single isomer, unassigned) [Metabolite 1 of Compound 22 - Isomer B of Example 16]
- concentration of Metabolite 1 in liver relative to the plasma concentration [10]: 21 times
